Our source for the logP and I values is ChEMBL document CHEMBL1130382, “Inhibition of thyroid hormone uptake by calcium antagonists of the dihydropyridine class” (J Med Chem, 1997).

A short description of series [1]: Partition coefficient (logP). Particulars: octanol/water.
Series [2] deals with HepG2. The series can be described thus: Inhibitory effect on L-triiodothyronine (L-T3) uptake by human HepG2 hepatoma cells at an application dose 10E-5 M. The series is classed as functional.
The subject of series [3] is HepG2. The series can be described thus: Compound tested for inhibitory effect on L-triiodothyronine (L-T3) uptake by human HepG2 hepatoma cells at an application dose 10E-5 (M). It counts as functional.

`c1ccc(Nc2ccccc2)cc1` [DIPHENYLAMINE] displayed a logP in series [1] of 2.94. Moreover, the I in the series on HepG2 [2] is on record as 20.9%.
The compound `CCOC(=O)C1=C(C)NC(C)=C(C(=O)OC)C1c1cccc([N+](=O)[O-])c1` (stereo not given) [NITRENDIPINE] registered an I in the series with HepG2 [2] of 81.8%.
Take `CCOC(=O)C1=C(C)N=C(C)/C(=C(/O)OCC)C1c1cccc(OC)c1` (stereo not given): the logP in series [1] is 3.22. The I with HepG2 [2] is on record as 17.5%.
As to `CCOC(=O)C1=C(C)NC(C)=C(C(=O)OCC)C1c1cccc(O)c1`, in series [1], the logP came to 4.03. In the series on HepG2 [2], this compound came in with an I of 21.6%.
With `CCOC(=O)C1=C(C)N=C(C)/C(=C(/O)OCC)C1c1ccc(I)cc1` (stereo not given), the logP in series [1] came out at 4.7. In the series with HepG2 [2], this compound registered an I of 26.8%.
The like results for `CCO/C(O)=C1\C(C)=NC(C)=C(C(=O)OC)C1c1ccccc1C(F)(F)F` (stereo not given) were, in that order, 3.82 and 23.1%.
The like results for `CCO/C(O)=C1\C(C)=NC(C)=C(C(=O)OC)C1c1ccc([N+](=O)[O-])cc1` (stereo not given) were, in that order, 3.6 and 85.8%.
The compound `CCO/C(O)=C1\C(C)=NC(C)=C(C(=O)OC)C1c1cccc(C(F)(F)F)c1` (stereo not given) had a logP in series [1] of 3.9. Further, in the series with HepG2 [2], the I was found to be 19.6%.
Turning to `CCOC(=O)C1=C(C)N=C(C)/C(=C(/O)OCC)C1c1cccc(C)c1` (stereo not given), in series [1], the logP is 3.76. The I with HepG2 [2] was 29.7%.
With `O=C(O)c1ccccc1Nc1ccccc1` [FENAMIC ACID], the logP in series [1] is 3.08. For the same compound, the I in the series on HepG2 [2] was found to be 20.5%.
`CCOC(=O)c1c(C)nc(C)c(C(=O)OCC)c1-c1cccc([N+](=O)[O-])c1` yielded a logP in series [1] of 3.1. In addition, in the series on HepG2 [2], the I is reported as 28.4%.
Compound `c1ccc(Oc2ccccc2)cc1` [DIPHENYLETHER] registered a log partition coefficient (logP) in series [1] of 3.83. For the same compound, in the series on HepG2 [2], the I came to 22%.
`COC(=O)C1=C(C)NC(C)=C(C(=O)OC)C1c1ccccc1[N+](=O)[O-]` [NIFEDIPINE]: the I in the series on HepG2 [2] turned out to be 80.5%.
For `CC1=C(C#N)C(c2cccc([N+](=O)[O-])c2)C(C#N)=C(C)N1`, the logP in series [1] was 1.45. The compound further had an I in the series with HepG2 [2] of 53.8%.
`CCOC(=O)C1=C(C)N=C(C)/C(=C(/O)OCC)C1c1cccc(I)c1` (stereo not given): in the series on HepG2 [3], the I came out at 33.2%. In addition, the logP in series [1] was determined as 4.48.
Regarding `CCO/C(O)=C1\C(C)=NC(C)=C(C(=O)OC)C1c1ccccc1[N+](=O)[O-]` (stereo not given), the logP in series [1] worked out at 2.51. For the same compound, the I in the series with HepG2 [2] stood at 41.4%.

One may read the logP as a log measure of how a compound divides between an organic and an aqueous phase.
